The values below come from ChEMBL document CHEMBL4346754, “Further exploration of an N-aryl phenoxyethoxy pyridinone-based series of mGlu3 NAMs: Challenging SAR, enantiospecific activity and in vivo efficacy” (Bioorg Med Chem Lett, 2019).

In data set [1] the target is Metabotropic glutamate receptor 3 (Rattus norvegicus) (UniProt P31422). Description: Negative allosteric modulation of rat mGlu3R expressed in HEK293 cells co-expressing Galpha15 assessed as decrease in glutamate-induced calcium mobilization relative to glutamate. The format is functional, cell-based. More on the design: concentration or dose not given beside the values. (Calcium assays in cells follow changes in intracellular calcium, usually with a dye or a luminescent sensor.)
Chain of Metabotropic glutamate receptor 3 (Rattus norvegicus) (P31422 23-879 limits assumed): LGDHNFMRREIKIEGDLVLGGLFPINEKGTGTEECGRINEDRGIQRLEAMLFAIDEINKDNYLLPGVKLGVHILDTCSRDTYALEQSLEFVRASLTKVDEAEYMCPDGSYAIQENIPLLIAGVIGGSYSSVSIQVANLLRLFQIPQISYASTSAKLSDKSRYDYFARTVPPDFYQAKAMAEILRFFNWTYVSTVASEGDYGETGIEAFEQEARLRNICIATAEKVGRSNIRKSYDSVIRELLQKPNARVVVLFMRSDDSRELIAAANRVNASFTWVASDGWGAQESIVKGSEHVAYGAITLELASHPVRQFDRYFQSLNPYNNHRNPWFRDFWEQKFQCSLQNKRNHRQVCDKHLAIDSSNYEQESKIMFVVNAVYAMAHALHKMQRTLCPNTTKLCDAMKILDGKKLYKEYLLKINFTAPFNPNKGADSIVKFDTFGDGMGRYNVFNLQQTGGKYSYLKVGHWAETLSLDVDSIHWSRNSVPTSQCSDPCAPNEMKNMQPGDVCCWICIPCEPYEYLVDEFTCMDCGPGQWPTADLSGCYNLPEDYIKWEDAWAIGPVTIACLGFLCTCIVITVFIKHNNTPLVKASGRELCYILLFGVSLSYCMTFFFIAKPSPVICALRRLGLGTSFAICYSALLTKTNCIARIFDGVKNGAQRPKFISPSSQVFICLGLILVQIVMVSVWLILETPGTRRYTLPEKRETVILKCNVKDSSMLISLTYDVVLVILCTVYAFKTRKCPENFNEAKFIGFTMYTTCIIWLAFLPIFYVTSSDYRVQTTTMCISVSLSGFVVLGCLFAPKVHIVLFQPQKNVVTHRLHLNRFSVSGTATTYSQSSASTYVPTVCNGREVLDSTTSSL

Data set [2] has as its target T1, Metabotropic glutamate receptor 3 (Rattus norvegicus, UniProt P31422). Description: Negative allosteric modulation of rat mGlu3R expressed in HEK cells harboring GIRK assessed as reduction in glutamate-induced thallium flux. The format is cell-based.
Data set [3] in a line: Permeability coefficient, Kp in rat brain. The format is ADME, tissue-based.
A short description of data set [4]: Fraction unbound in rat brain homogenate. The format is ADME, tissue-based.
The nature of data set [5]: Unbound brain to plasma concentration ratio in rat. The format is ADME, cell-free. As to conditions: read-out: K(p,uu,brain).
The nature of data set [6]: Fraction unbound in rat plasma. The format is ADME, cell-free.
Data set [7] is described as follows: Volume of distribution at steady state in iv dosed rat. The format is ADME, organism-based. As to conditions: in vivo, read-out: Vdss.
Data set [8] concerns Mus musculus. Description: Anti-anxiety activity in C57BL/6J mouse assessed as reduction in number of marbles buried at 10 mg/kg, ip treated for 15 mins by marble burying assay. The format is functional, organism-based.
Data set [9] can be described thus: Drug level in mouse plasma at 10 mg/kg, ip. The format is ADME, organism-based. To be noted: in vivo.
Data set [10] in a line: MRT in iv dosed rat. The format is ADME, organism-based. As to conditions: in vivo.
The nature of data set [11]: Half life in iv dosed rat. To be noted: in vivo. The format is ADME, organism-based.
Data set [12] can be described thus: Drug level in mouse brain at 10 mg/kg, ip. The format is ADME, organism-based. To be noted: in vivo, read-out: Ct.
Data set [13] can be described thus: Plasma clearance in iv dosed rat. The format is ADME, organism-based.
For data set [14], the system named is Mus musculus. Description: Antidepressant activity in ip dosed C57BL6/J mouse as total time of immobile by tail suspension test relative to control. The format is functional, organism-based.
For data set [15], the system named is Mus musculus. Nature of the data set: Antidepressant activity in ip dosed C57BL6/J mouse as […] in immobility time by tail suspension test. The format is functional. As to conditions: read-out: MED.
Data set [16] concerns Mus musculus. Description: Anti-anxiety activity in C57BL/6J mouse assessed as increase in total number of open arm entries at 10 mg/kg, ip treated for 15 mins by elevated zero maze assay. The format is functional, organism-based.
Data set [17] is described as follows: Brain to plasma permeability coefficient, Kp in mouse at 10 mg/kg, ip. The format is ADME, organism-based.
The test system of data set [18] is Mus musculus. Nature of the data set: Anti-anxiety activity in C57BL/6J mouse assessed as increase in total time spent in open arms at 10 mg/kg, ip treated for 15 mins by elevated zero maze assay. The format is functional, organism-based.
Data set [19] concerns the target T1, Metabotropic glutamate receptor 3. Description: Negative allosteric modulation of rat mGlu3R expressed in HEK cells harboring GIRK assessed as reduction in glutamate-induced thallium flux preincubated for 5 mins followed by glutamate addition and measured after 2 mins by BTC-AM-dye based fluorescence assay. The format is cell-based.
Data set [20] has as its system Mus musculus. Description: Anti-anxiety activity in C57BL/6J mouse assessed as increase in total time spent in open arms at 15 mg/kg, ip treated for 15 mins by elevated zero maze assay. The format is functional, organism-based.
The subject of data set [21] is Mus musculus. Description: Anti-anxiety activity in C57BL/6J mouse assessed as reduction in number of marbles buried at 15 mg/kg, ip treated for 15 mins by marble burying assay. The format is functional, organism-based.
The test system of data set [22] is Mus musculus. Description: Anti-anxiety activity in C57BL/6J mouse assessed as increase in total number of open arm entries at 15 mg/kg, ip treated for 15 mins by elevated zero maze assay. The format is functional, organism-based.

Calls of active or inactive are those of the source. Where only a bound is given, the exact number is not on record here.

T1 sequence (P31422 whole entry): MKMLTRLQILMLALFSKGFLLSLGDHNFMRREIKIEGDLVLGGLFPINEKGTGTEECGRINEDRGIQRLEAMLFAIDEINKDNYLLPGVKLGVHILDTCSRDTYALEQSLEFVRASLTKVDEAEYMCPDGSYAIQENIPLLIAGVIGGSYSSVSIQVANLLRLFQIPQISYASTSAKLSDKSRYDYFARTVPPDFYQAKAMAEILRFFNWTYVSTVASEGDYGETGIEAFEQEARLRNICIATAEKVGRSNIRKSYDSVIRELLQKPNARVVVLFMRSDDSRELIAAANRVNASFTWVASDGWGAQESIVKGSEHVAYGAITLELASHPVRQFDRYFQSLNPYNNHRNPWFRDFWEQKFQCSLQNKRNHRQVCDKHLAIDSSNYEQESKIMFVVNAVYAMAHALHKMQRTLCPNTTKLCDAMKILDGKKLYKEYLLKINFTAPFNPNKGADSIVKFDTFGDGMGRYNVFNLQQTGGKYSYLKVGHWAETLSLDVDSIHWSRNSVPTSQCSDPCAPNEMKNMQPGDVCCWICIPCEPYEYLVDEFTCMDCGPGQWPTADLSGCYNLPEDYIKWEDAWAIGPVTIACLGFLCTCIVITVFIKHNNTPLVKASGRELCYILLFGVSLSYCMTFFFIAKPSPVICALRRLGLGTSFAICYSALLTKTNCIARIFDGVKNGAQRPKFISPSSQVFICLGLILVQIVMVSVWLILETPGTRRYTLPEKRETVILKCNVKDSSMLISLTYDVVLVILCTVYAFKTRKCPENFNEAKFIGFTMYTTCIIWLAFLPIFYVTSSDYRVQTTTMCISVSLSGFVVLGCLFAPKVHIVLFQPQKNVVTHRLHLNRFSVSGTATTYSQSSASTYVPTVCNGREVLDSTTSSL

With `Cc1cccc(-n2ccc(OCC(Oc3ccccc3)c3ccccc3)cc2=O)c1` (configuration not stated), the Activity in data set [1] is 14%. For the same compound, in data set [2], the 50% inhibitory concentration (IC50) (commonly the concentration needed to halve the response being measured) is above 10 µM.
With `Cc1cccc(-n2ccc(OC[C@H](C)Oc3ccccc3)cc2=O)c1`, the Activity in data set [1] was -7.4%. Further, in [2], the IC50 is 1.3 µM.
For `Cc1cccc(-n2ccc(OCC3CCc4ccccc4O3)cc2=O)c1` (racemic), the Activity in data set [1] is -0.77%. Besides, the IC50 in data set [2] was found to be 4.1 µM.
On the same counts, the results for `C[C@@H](COc1ccccc1)Oc1ccn(-c2ccc(F)cc2)c(=O)c1` are 32% and above 10 µM.
For `O=c1cc(OCC2CCc3ccccc3O2)ccn1-c1ccc(F)cc1` (racemic), in [1], the Activity was -1.7%. Besides, the IC50 in [2] turned out to be 7.7 µM.
Take `C[C@H](COc1ccccc1)Oc1ccn(-c2cccc(Cl)c2)c(=O)c1`: the Activity in data set [1] is -11%. This compound came in with a Kp in data set [3] of 1.42. The figures for the fraction unbound in data set [4] and in [6] were 0.014 and 0.045, respectively. For the same compound, the IC50 in [2] amounted to 0.52 µM. The Kp uu in data set [5] amounted to 0.44.
`CC(COc1ccccc1)COc1ccn(-c2cccc(Cl)c2)c(=O)c1` (single isomer, unassigned): the Activity in [1] was -4.4%. For the same compound, in data set [2], the IC50 is 1.4 µM.
With `Cc1cccc(-n2ccc(OC[C@@H](C)Oc3ccccc3)cc2=O)c1`, in data set [1], the Activity was found to be 4.7%. Besides, the half-maximal inhibitory concentration (IC50) in [2] was above 10 µM.
For the compound `C[C@H](COc1ccn(-c2ccc(F)cc2)c(=O)c1)Oc1ccccc1`, the Activity in [1] came to 1.3%. Also, the IC50 in data set [2] was above 10 µM.
The like results for `CC(COc1ccccc1)COc1ccn(-c2ccc(F)cc2)c(=O)c1` (racemic) were, in that order, 6.6% and 3.2 µM.
Consider `Cc1cccc(-n2ccc(OCC(C)COc3ccccc3)cc2=O)c1` (single isomer, unassigned; form 2) [listing 1 of 2 here], for which, in data set [1], the Activity is -7.3%.
As to `O=c1cc(OCC(Oc2ccccc2)c2ccccc2)ccn1-c1ccc(F)cc1` (configuration not stated), in data set [1], the Activity was 4.9%. Also, in [2], the IC50 was above 10 µM.
In the case of `Cc1cccc(-n2ccc(OCC(C)COc3ccccc3)cc2=O)c1` (single isomer, unassigned; form 1) [listing 1 of 2 here], the Activity in data set [1] is -6.6%.
In the case of `Cc1cccc(-n2ccc(O[C@H](C)COc3ccccc3)cc2=O)c1`, in data set [1], the Activity is -4.3%. For the same compound, the Vd in data set [7] came out at 3.82 L/kg. Besides, the result with Mus musculus [8], in the data set on Mus musculus [16] and in the data set with Mus musculus [18] was Active. The Kp in data set [3] was found to be 1.6; in data set [17], 1.42. Moreover, the concentration in data set [9] is 272 nM; in [12] it was 386 nM. The mean residence time MRT – broadly, the average time that molecules of a dose stay in the body – in data set [10] was 2.05 h. Also, the figures for the fraction unbound in [4] and in [6] were 0.018 and 0.055, respectively. Also, the IC50 in data set [2] is 1.5 µM. In data set [5], the Kp uu is 0.53. Further, the half-life (commonly the time needed for the level to fall by half in the phase considered) in data set [11] was determined as 2 h. In addition, the clearance (commonly a measure of how efficiently the substance is removed, as volume per time) in [13] stood at 31 mL/min/kg. In addition, the result in the data set on Mus musculus [14] was inactive. Besides, in the data set with Mus musculus [15], the minimal effective dose amounted to 10 mg/kg.
Take `CC(COc1ccccc1)COc1ccn(-c2ccc(Cl)cc2)c(=O)c1` (single isomer, unassigned): the Activity in data set [1] is 36%. Also, in [3], the Kp worked out at 1.6. Besides, the fraction unbound (usually free concentration divided by total concentration) was found to be 0.008 in data set [4] and 0.01 in data set [6]. For the same compound, the IC50 in [2] is 0.92 µM.
As for `Cc1cccc(-n2ccc(OCC(C)COc3ccccc3)cc2=O)c1` (single isomer, unassigned; form 2) [listing 2 of 2 here], the IC50 in [2] worked out at 1.3 µM.
Turning to `Cc1cccc(-n2ccc(OCC(C)COc3ccccc3)cc2=O)c1` (racemic) [listing 1 of 2 here], the IC50 in data set [2] was found to be 3.2 µM.
Take `COc1ccc(-n2ccc(O[C@H](C)COc3ccccc3)cc2=O)cc1`: the Activity in data set [1] worked out at 19%. The IC50 in [2] was above 10 µM.
The like results for `C[C@H](COc1ccccc1)Oc1ccn(-c2ccc(Cl)cc2)c(=O)c1` were, in that order, -7.9% and 2.7 µM.
As to `Cc1cccc(-n2ccc(OCC(C)COc3ccccc3)cc2=O)c1` (single isomer, unassigned; form 1) [listing 2 of 2 here], the half-inhibitory concentration (IC50) in data set [2] turned out to be 3.1 µM.
Consider `C[C@@H](COc1ccn(-c2ccc(F)cc2)c(=O)c1)Oc1ccccc1`, for which the Activity in data set [1] is -5.7%. Further, the Vd in data set [7] is 2.05 L/kg. Further, the IC50 in [19] fell in the range of 1.28 to 1.3 µM. In data set [10], the MRT was 0.448 h. In [11], this compound gave a half-life of 0.39 h. For the same compound, the clearance in [13] was determined as 76.3 mL/min/kg. Moreover, in the data set with Mus musculus [15], the minimal effective dose was 10 mg/kg.
For the compound `Cc1cccc(-n2ccc(OCC(C)COc3ccccc3)cc2=O)c1` (racemic) [listing 2 of 2 here], the Activity in data set [1] was found to be 4.6%.
As to `CN(C)CCCC1(c2ccc(F)cc2)OCc2cc(C#N)ccc21` (configuration not stated), the outcome in the data set on Mus musculus [20], in the data set with Mus musculus [21] and in the data set with Mus musculus [22] was Active. Further, the outcome in the data set on Mus musculus [14] was inactive.
In the case of `C[C@H](COc1ccccc1)Oc1ccn(-c2ccc(F)cc2)c(=O)c1`, the Activity in [1] was -2.2%. In addition, the IC50 in data set [2] turned out to be 3 µM.
